In PubChem BioAssay AID218 (DTP/NCI, 2004):
Values joined by “and” are separate entries in the source; they are usually repeats but may differ in a detail not shown here. Equal values may be shown once.

Tested on: C57BL/6 mice, Adenocarcinoma 755 sc, tumor weight T/C
Assay: NCI In Vivo Anticancer Drug Screen. Data for tumor model Adenocarcinoma 755 (subcutaneous) in C57BL/6 mice
Details: endpoint: mean tumor weight, higher = larger tumour
Method: The antitumor activity of compounds was measured in mice bearing transplantable tumors. Survival or tumor size were measured and the results are expressed as the measurement made in the treated group (T) divided by the measurement made in the vehicle treated control group (C). The tumor model used in this assay is Adenocarcinoma 755 (subcutaneous) in C57BL/6 mice

[1] = dose: 15.0 mg/kg/injection, schedule: Q01DX011 (ip), vehicle: saline
[2] = dose: 20.0 mg/kg/injection, schedule: Q01DX011 (ip), vehicle: saline
[3] = dose: 75.0 mg/kg/injection, schedule: Q01DX011 (ip), vehicle: saline
[4] = dose: 150.0 mg/kg/injection, schedule: Q01DX011 (ip), vehicle: saline
[5] = dose: 100.0 mg/kg/injection, schedule: Q01DX011 (ip), vehicle: saline
[6] = dose: 50.0 mg/kg/injection, schedule: Q01DX011 (ip), vehicle: saline

Clc1ccc(N2CCN(CCCN3CCN(c4cccc(Cl)c4)CC3)CC2)cc1
T/C (dose: 7.5 mg/kg/injection, schedule: Q01DX011 (ip), vehicle: carboxymethylcellulose (CMC)): 43 % of control
T/C (dose: 15.0 mg/kg/injection, schedule: Q01DX011 (ip), vehicle: carboxymethylcellulose (CMC)): 38 % of control
T/C (dose: 30.0 mg/kg/injection, schedule: Q01DX011 (ip), vehicle: carboxymethylcellulose (CMC)): 54 % of control

O=CNC(Cc1ccc(N(CCCl)CCCl)cc1)C(=O)O (stereo not given)
T/C (dose: 40.0 mg/kg/injection, schedule: Q01DX011 (ip), vehicle: carboxymethylcellulose (CMC)): 39 % of control
T/C (dose: 80.0 mg/kg/injection, schedule: Q01DX011 (ip), vehicle: carboxymethylcellulose (CMC)): 1 % of control

N/C(=N/N=C/c1ccccc1[N+](=O)[O-])N[N+](=O)[O-]
T/C (dose: 150.0 mg/kg/injection, schedule: Q02DX006 (ip), vehicle: saline): 95 % of control
T/C (dose: 200.0 mg/kg/injection, schedule: Q02DX006 (ip), vehicle: saline): 76 % of control

CCNc1ncnc2[nH]ncc12
T/C [1]: 13 % of control
T/C [2]: 4 % of control

CCOC(C)C(/C=N/NC(N)=S)=NNC(N)=S (stereo not given)
T/C (dose: 120.0 mg/kg/injection, schedule: Q01DX011 (ip), vehicle: saline): 59 % of control

Clc1ncnc2c1ncn2C1CCCC1
T/C (dose: 25.0 mg/kg/injection, schedule: Q01DX011 (ip), vehicle: carboxymethylcellulose (CMC)): 79 % of control
T/C (dose: 50.0 mg/kg/injection, schedule: Q01DX011 (ip), vehicle: carboxymethylcellulose (CMC)): 118 % of control
T/C (dose: 75.0 mg/kg/injection, schedule: Q01DX011 (ip), vehicle: carboxymethylcellulose (CMC)): 71 % of control
T/C (dose: 100.0 mg/kg/injection, schedule: Q01DX011 (ip), vehicle: carboxymethylcellulose (CMC)): 18 % of control

Nc1ncnc2[nH]ncc12
T/C (dose: 10.0 mg/kg/injection, schedule: Q02DX006 (ip), vehicle: other): 28 % of control
T/C [1]: 7 % of control and 22 % of control
T/C [2]: 9 % of control
T/C (dose: 20.0 mg/kg/injection, schedule: Q02DX006 (ip), vehicle: other): 16 % of control
T/C (dose: 40.0 mg/kg/injection, schedule: Q02DX006 (ip), vehicle: other): 4 % of control

CNc1ncnc2c1cnn2C
T/C (dose: 2.0 mg/kg/injection, schedule: Q01DX011 (ip), vehicle: saline): 84 % of control
T/C (dose: 5.0 mg/kg/injection, schedule: Q01DX011 (ip), vehicle: saline): 89 % of control
T/C (dose: 10.0 mg/kg/injection, schedule: Q01DX011 (ip), vehicle: saline): 120 % of control
T/C [2]: 36 % of control

c1cn[nH]c1
T/C (dose: 8.0 mg/kg/injection, schedule: Q01DX006 (iv), vehicle: saline): 64 % of control
T/C (dose: 12.5 mg/kg/injection, schedule: Q01DX011 (oral), vehicle: saline): 61 % of control
T/C (dose: 25.0 mg/kg/injection, schedule: Q01DX011 (oral), vehicle: saline): 45 % of control
T/C (dose: 32.0 mg/kg/injection, schedule: Q01DX006 (iv), vehicle: saline): 94 % of control
T/C (dose: 50.0 mg/kg/injection, schedule: Q01DX011 (oral), vehicle: saline): 9 % of control
T/C (dose: 64.0 mg/kg/injection, schedule: Q01DX006 (iv), vehicle: saline): 53 % of control

CCOc1ccccc1C(=O)Nc1ccc(Br)cc1
T/C [3]: 94 % of control
T/C [4]: 98 % of control
T/C (dose: 300.0 mg/kg/injection, schedule: Q01DX011 (ip), vehicle: saline): 75 % of control
T/C (dose: 600.0 mg/kg/injection, schedule: Q01DX011 (ip), vehicle: saline): 51 % of control

Nc1nc(=S)c2ncn(C3OC(CO)C(O)C3O)c2[nH]1 (stereo not given)
T/C (dose: 0.5 mg/kg/injection, schedule: Q01DX011 (ip), vehicle: carboxymethylcellulose (CMC)): 48 % of control
T/C (dose: 1.0 mg/kg/injection, schedule: Q01DX011 (ip), vehicle: carboxymethylcellulose (CMC)): 13 % of control
T/C (dose: 2.0 mg/kg/injection, schedule: Q01DX011 (ip), vehicle: carboxymethylcellulose (CMC)): 2 % of control

CC(C)Sc1nc(N)nc2nc[nH]c12
T/C [5]: 7 % of control

Cn1cnc([N+](=O)[O-])c1SCc1ccccc1
T/C [6]: 52 % of control
T/C [5]: 49 % of control
T/C (dose: 125.0 mg/kg/injection, schedule: Q01DX011 (ip), vehicle: saline): 33 % of control
T/C [4]: 54 % of control
T/C (dose: 175.0 mg/kg/injection, schedule: Q01DX011 (ip), vehicle: saline): 66 % of control

c1ccc(Sc2ncnc3nc[nH]c23)cc1
T/C [6]: 15 % of control
T/C [3]: 14 % of control
T/C [5]: 5 % of control
